In experiment [1] the target is T1, Serine/threonine-protein kinase D3 (Homo sapiens) (UniProt O94806).
T1 sequence (whole entry): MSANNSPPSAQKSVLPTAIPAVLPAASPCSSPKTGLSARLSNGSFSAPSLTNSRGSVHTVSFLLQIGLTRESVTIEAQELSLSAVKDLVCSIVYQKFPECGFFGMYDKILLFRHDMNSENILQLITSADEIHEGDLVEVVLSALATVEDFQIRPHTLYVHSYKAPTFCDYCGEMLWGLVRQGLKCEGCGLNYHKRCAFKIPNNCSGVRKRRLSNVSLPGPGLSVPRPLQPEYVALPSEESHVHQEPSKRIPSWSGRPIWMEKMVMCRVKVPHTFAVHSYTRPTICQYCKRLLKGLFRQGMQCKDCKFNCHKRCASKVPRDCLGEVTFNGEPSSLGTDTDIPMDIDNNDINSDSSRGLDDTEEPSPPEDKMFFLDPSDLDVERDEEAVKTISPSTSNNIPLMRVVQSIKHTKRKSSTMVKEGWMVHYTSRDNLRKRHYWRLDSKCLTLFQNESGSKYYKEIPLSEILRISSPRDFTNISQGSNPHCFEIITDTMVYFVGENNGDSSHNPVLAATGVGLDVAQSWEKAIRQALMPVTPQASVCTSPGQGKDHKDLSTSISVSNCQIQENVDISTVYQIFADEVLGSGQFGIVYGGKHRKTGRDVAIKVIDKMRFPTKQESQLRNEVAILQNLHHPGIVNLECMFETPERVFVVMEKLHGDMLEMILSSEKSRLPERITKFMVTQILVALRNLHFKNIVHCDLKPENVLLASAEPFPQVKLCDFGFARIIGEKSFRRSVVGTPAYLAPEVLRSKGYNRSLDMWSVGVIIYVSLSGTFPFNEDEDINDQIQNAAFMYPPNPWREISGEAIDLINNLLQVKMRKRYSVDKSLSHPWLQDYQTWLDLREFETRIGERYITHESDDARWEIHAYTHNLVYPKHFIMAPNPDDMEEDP
The experiment in a line: Inhibition of human full length PKD3 expressed in baculovirus assessed as substrate phosphorylation using fluorescence-labelled peptides as substrate at 9 uM after 90 mins by microfluidic peptide phosphorylation assay.

Experiment [2] has as its target T2, Inhibitor of nuclear factor kappa-B kinase subunit beta (Homo sapiens) (UniProt O14920).
T2 sequence (whole entry): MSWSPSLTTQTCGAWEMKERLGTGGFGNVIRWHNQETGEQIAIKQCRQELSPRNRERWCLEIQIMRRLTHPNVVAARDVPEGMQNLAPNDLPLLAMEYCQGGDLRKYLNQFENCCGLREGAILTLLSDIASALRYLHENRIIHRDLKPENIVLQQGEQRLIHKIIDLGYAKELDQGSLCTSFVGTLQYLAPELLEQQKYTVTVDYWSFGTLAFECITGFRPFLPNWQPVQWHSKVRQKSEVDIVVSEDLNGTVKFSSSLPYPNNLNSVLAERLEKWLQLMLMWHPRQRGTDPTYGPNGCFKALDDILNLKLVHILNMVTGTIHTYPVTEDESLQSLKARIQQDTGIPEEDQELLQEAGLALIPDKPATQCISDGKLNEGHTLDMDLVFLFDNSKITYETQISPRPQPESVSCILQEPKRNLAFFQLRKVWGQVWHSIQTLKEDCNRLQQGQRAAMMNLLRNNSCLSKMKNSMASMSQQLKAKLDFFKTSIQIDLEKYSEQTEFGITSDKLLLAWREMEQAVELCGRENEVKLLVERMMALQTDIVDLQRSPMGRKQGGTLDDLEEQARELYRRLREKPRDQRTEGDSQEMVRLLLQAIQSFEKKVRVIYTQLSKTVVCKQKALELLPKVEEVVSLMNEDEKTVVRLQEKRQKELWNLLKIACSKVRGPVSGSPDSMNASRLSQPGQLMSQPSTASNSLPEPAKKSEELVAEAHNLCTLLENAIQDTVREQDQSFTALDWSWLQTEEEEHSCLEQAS
The experiment in a line: Inhibition of human full length IKK beta expressed in baculovirus assessed as substrate phosphorylation using fluorescence-labelled peptides as substrate at 70 uM after 90 mins by microfluidic peptide phosphorylation assay.

Experiment [3] has as its target T3, Serine/threonine-protein kinase Nek2 (Homo sapiens) (UniProt P51955).
T3 sequence (whole entry): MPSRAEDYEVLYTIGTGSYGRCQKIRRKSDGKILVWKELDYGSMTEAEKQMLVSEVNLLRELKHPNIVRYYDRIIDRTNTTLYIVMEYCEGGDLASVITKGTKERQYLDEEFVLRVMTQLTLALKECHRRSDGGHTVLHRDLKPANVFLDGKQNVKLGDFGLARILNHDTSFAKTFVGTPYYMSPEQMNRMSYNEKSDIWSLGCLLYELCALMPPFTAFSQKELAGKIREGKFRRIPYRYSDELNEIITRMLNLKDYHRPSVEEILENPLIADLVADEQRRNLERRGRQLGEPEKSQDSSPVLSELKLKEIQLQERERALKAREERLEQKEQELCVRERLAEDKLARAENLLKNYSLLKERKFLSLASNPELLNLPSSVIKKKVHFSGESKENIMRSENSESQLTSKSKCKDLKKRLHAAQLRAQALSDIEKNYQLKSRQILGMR
The experiment in a line: Inhibition of human full length NEK2 expressed in baculovirus assessed as substrate phosphorylation using fluorescence-labelled peptides as substrate at 70 uM after 90 mins by microfluidic peptide phosphorylation assay.

For experiment [4], the target named is Proto-oncogene tyrosine-protein kinase Src (Homo sapiens) (UniProt P12931). The experiment in a line: Inhibition of human full length SRC expressed in baculovirus assessed as substrate phosphorylation using fluorescence-labelled peptides as substrate at 2 uM after 90 mins by microfluidic peptide phosphorylation assay.
Chain of Proto-oncogene tyrosine-protein kinase Src (Homo sapiens) (P12931 2-536 limits assumed): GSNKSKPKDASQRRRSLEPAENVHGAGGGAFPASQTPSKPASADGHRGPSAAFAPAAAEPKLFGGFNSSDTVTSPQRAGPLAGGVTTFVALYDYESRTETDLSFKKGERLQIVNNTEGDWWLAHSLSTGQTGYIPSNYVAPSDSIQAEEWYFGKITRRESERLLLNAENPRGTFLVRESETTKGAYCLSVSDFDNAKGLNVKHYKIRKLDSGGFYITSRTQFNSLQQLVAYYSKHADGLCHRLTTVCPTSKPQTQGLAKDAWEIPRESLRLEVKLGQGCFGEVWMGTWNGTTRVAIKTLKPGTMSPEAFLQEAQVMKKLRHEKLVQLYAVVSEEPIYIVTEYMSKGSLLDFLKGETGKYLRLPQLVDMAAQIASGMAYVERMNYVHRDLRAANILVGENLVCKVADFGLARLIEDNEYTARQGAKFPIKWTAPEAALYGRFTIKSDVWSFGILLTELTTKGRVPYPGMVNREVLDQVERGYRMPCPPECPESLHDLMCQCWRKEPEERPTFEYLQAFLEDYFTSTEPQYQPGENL
Experiment [5] has as its system Tyrosine-protein kinase ABL1 (Homo sapiens), P00519 [Q252H]. The experiment in a line: Inhibition of human truncated ABL Q252H mutant expressed in baculovirus assessed as substrate phosphorylation using fluorescence-labelled peptides as substrate at 2 uM after 90 mins by microfluidic peptide phosphorylation assay.
The species entered for experiment [6] is Homo sapiens. The experiment in a line: Inhibition of human P70S6K catalytic domain expressed in baculovirus assessed as substrate phosphorylation using fluorescence-labelled peptides as substrate at 2 uM after 90 mins by microfluidic peptide phosphorylation assay.
For experiment [7], the target named is Dual specificity tyrosine-phosphorylation-regulated kinase 1A (Rattus norvegicus) (UniProt Q63470). The experiment in a line: Inhibition of rat full length DYRK1a expressed in Escherichia coli cell assessed as substrate phosphorylation using fluorescence-labelled peptides as substrate at 2 uM after 90 mins by microfluidic peptide phosphorylation assay.

Each structure is given as a SMILES string.

Usually inhibition stands for the drop in the measured response relative to a control, in per cent.

As for `NCC1CN(c2ncnc3[nH]c4cnccc4c23)CCO1` (configuration not stated), in experiment [1], the inhibition came to 80%.
Turning to `CNCc1ccc(-c2ncnc3[nH]cnc23)cc1`, the inhibition in experiment [2] was determined as 90.5%; in experiment [3], 15.5%.
As to `NC1CCN(c2ncnc3[nH]ccc23)CC1`, the inhibition in experiment [4] was found to be 0%; in experiment [5], 17%; in experiment [6], 3.5%; in experiment [7] it was 0.5%.

The values are drawn from ChEMBL document CHEMBL3132769, “Fragment growing to retain or alter the selectivity of anchored kinase hinge-binding fragments” (Medchemcomm, 2014).
